Results taken from the supplement of paper PMC10307832.

Tests used:
Experiment in all cases: relative viability (nuclei count vs DMSO), 5 days (fraction); higher = more cells survive
Alisertib + Decitabine = compound: COc1cc(Nc2ncc3c(n2)-c2ccc(Cl)cc2C(c2c(F)cccc2OC)=NC3)ccc1C(=O)O [Alisertib] + Nc1ncn([C@H]2C[C@H](O)[C@@H](CO)O2)c(=O)n1 [Decitabine] (partner 2 µM)
Method in brief: (§1)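 Relative viability is defined as nuclei in treated wells over nuclei in vehicle wells. Duplicate plates were run and medians reported. Lung cancer cell lines in 1536-well plates were dosed by pin tool one day after seeding, with one drug or with a fixed anchor-drug dose plus five library-drug doses (not always all listed) in √10 steps, and nuclei were counted after 5 days.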

Alisertib + Crizotinib = compound: COc1cc(Nc2ncc3c(n2)-c2ccc(Cl)cc2C(c2c(F)cccc2OC)=NC3)ccc1C(=O)O [Alisertib] + C[C@@H](Oc1cc(-c2cnn(C3CCNCC3)c2)cnc1N)c1c(Cl)ccc(F)c1Cl [Crizotinib] (partner 1 µM)
Method in brief: as §1

Alisertib + Phenformin = compound: COc1cc(Nc2ncc3c(n2)-c2ccc(Cl)cc2C(c2c(F)cccc2OC)=NC3)ccc1C(=O)O [Alisertib] + N=C(N)NC(=N)NCCc1ccccc1 [Phenformin] (partner 250 µM)
Method in brief: as §1

Alisertib + Navitoclax = compound: COc1cc(Nc2ncc3c(n2)-c2ccc(Cl)cc2C(c2c(F)cccc2OC)=NC3)ccc1C(=O)O [Alisertib] + CC1(C)CCC(c2ccc(Cl)cc2)=C(CN2CCN(c3ccc(C(=O)NS(=O)(=O)c4ccc(N[C@H](CCN5CCOCC5)CSc5ccccc5)c(S(=O)(=O)C(F)(F)F)c4)cc3)CC2)C1 [Navitoclax] (partner 0.5 µM)
Method in brief: as §1

Cell Line	relative viability (Alisertib + Decitabine; first compound 0.005 µM)	relative viability (Alisertib + Decitabine; first compound 0.01581 µM)	relative viability (Alisertib + Decitabine; first compound 0.05 µM)	relative viability (Alisertib + Decitabine; first compound 0.1581 µM)	relative viability (Alisertib + Decitabine; first compound 0.5 µM)	relative viability (Alisertib + Crizotinib; first compound 0.005 µM)	relative viability (Alisertib + Crizotinib; first compound 0.01581 µM)	relative viability (Alisertib + Crizotinib; first compound 0.05 µM)	relative viability (Alisertib + Crizotinib; first compound 0.1581 µM)	relative viability (Alisertib + Crizotinib; first compound 0.5 µM)	relative viability (Alisertib + Phenformin; first compound 0.005 µM)	relative viability (Alisertib + Phenformin; first compound 0.01581 µM)	relative viability (Alisertib + Phenformin; first compound 0.05 µM)	relative viability (Alisertib + Phenformin; first compound 0.1581 µM)	relative viability (Alisertib + Phenformin; first compound 0.5 µM)	relative viability (Alisertib + Navitoclax; first compound 0.005 µM)	relative viability (Alisertib + Navitoclax; first compound 0.01581 µM)	relative viability (Alisertib + Navitoclax; first compound 0.05 µM)	relative viability (Alisertib + Navitoclax; first compound 0.1581 µM)	relative viability (Alisertib + Navitoclax; first compound 0.5 µM)
HCC-366	0.29	0.16	0.0371	0.0279	0.0431	0.686	0.456	0.0307	0.0254	0.0216	0.552	0.202	0.138	0.0286	0.0335	0.976	1.04	0.094	0.0103	0.019
HCC-827	0.373	0.303	0.246	0.219	0.24	0.898	0.802	0.374	0.395	0.254	0.353	0.431	0.39	0.198	0.178	1.01	1	0.545	0.324	0.249
HOP-62	0.17	0.217	0.205	0.136	0.2	0.833	0.743	0.232	0.212	0.104	0.612	0.553	0.345	0.147	0.143	0.966	0.919	0.214	0.139	0.0669
LC-2-ad	0.736	0.673	0.442	0.263	0.23	0.369	0.378	0.266	0.353	0.202	0.474	0.426	0.401	0.295	0.304	0.328	0.159	0.0861	0.114	0.0846
LCLC-97TM1	0.235	0.168	0.114	0.115	0.144	0.334	0.298	0.138	0.128	0.152	0.451	0.386	0.333	0.174	0.153	0.523	0.353	0.121	0.116	0.115
LK-2	0.294	0.321	0.165	0.143	0.127	0.226	0.232	0.224	0.233	0.288	0.38	0.385	0.179	0.149	0.163	0.859	0.722	0.356	0.181	0.225
LOU-NH91	0.799	0.77	0.651	0.524	0.45	0.76	0.705	0.494	0.463	0.424	0.582	0.668	0.508	0.372	0.32	0.79	0.731	0.551	0.326	0.271
LU99A	0.856	0.85	0.311	0.27	0.186	0.513	0.451	0.245	0.217	0.182	0.755	0.798	0.658	0.3	0.239	0.846	0.634	0.206	0.211	0.123
LXF-289	0.325	0.352	0.183	0.154	0.146	0.762	0.443	0.204	0.186	0.178	0.434	0.338	0.325	0.114	0.109	0.847	0.586	0.191	0.173	0.137
NCI-H23	0.3	0.184	0.184	0.2	0.178	0.427	0.367	0.202	0.179	0.187	0.666	0.512	0.518	0.233	0.163	0.677	0.562	0.334	0.175	0.143
NCI-H322M	0.714	0.654	0.482	0.425	0.48	0.809	0.777	0.431	0.498	0.313	0.683	0.793	0.572	0.412	0.409	1.16	1.3	1.13	0.576	0.35
NCI-H441	0.227	0.197	0.137	0.152	0.153	0.626	0.555	0.131	0.178	0.136	0.755	0.444	0.2	0.255	0.249	0.925	0.365	0.106	0.158	0.132
NCI-H460	0.441	0.408	0.0826	0.0385	0.0482	0.847	0.731	0.0614	0.0166	0.0164	0.474	0.343	0.0695	0.0235	0.0304	1.13	0.815	0.471	0.0264	0.0172
NCI-H520	0.435	0.451	0.355	0.236	0.242	0.589	0.38	0.286	0.296	0.243	0.552	0.395	0.275	0.318	0.2	1.19	0.66	0.386	0.272	0.251
NCI-H596	1.07	1.01	1.01	0.708	0.505		0.882	0.882	0.719	0.504	0.675	0.875	0.759	0.822	0.393		0.906	1.07	0.808	0.199
NCI-H647	0.286	0.256	0.137	0.129	0.0775	0.91	0.625	0.241	0.193	0.109	0.456	0.336	0.168	0.0894	0.0773	1.05	1.06	0.293	0.169	0.0658
